Results taken from PMC6476959, “Novel 3,4-Dihydroisocoumarins Inhibit Human P-gp and BCRP in Multidrug Resistant Tumors and Demonstrate Substrate Inhibition of Yeast Pdr5” (Frontiers in Pharmacology, 2019).
Entries after “also recorded” stand apart in the source; their conditions may differ.

Experiments:
[1] = molecular target: T1, Pdr5 (Saccharomyces cerevisiae, UniProt P33302); assay: Pdr5 transport assay (R6G) in plasma membrane preparations; assay type: biochemical; set-up: R6G transport activity of Pdr5 WT inhibited to (initial screen): dose or concentration left out as unconfirmed; details: for R6G transport activity of Pdr5 WT inhibited to (initial screen): relative to Pdr5 WT without compound
T1 construct: effect on (A) the transport activity of Pdr5 WT and (B) their effect on the ATPase activity; made in house; host or cells: S. cerevisiae YRE1001 (pdr1-3 background), isolated plasma membranes
T1 sequence (P33302 whole entry): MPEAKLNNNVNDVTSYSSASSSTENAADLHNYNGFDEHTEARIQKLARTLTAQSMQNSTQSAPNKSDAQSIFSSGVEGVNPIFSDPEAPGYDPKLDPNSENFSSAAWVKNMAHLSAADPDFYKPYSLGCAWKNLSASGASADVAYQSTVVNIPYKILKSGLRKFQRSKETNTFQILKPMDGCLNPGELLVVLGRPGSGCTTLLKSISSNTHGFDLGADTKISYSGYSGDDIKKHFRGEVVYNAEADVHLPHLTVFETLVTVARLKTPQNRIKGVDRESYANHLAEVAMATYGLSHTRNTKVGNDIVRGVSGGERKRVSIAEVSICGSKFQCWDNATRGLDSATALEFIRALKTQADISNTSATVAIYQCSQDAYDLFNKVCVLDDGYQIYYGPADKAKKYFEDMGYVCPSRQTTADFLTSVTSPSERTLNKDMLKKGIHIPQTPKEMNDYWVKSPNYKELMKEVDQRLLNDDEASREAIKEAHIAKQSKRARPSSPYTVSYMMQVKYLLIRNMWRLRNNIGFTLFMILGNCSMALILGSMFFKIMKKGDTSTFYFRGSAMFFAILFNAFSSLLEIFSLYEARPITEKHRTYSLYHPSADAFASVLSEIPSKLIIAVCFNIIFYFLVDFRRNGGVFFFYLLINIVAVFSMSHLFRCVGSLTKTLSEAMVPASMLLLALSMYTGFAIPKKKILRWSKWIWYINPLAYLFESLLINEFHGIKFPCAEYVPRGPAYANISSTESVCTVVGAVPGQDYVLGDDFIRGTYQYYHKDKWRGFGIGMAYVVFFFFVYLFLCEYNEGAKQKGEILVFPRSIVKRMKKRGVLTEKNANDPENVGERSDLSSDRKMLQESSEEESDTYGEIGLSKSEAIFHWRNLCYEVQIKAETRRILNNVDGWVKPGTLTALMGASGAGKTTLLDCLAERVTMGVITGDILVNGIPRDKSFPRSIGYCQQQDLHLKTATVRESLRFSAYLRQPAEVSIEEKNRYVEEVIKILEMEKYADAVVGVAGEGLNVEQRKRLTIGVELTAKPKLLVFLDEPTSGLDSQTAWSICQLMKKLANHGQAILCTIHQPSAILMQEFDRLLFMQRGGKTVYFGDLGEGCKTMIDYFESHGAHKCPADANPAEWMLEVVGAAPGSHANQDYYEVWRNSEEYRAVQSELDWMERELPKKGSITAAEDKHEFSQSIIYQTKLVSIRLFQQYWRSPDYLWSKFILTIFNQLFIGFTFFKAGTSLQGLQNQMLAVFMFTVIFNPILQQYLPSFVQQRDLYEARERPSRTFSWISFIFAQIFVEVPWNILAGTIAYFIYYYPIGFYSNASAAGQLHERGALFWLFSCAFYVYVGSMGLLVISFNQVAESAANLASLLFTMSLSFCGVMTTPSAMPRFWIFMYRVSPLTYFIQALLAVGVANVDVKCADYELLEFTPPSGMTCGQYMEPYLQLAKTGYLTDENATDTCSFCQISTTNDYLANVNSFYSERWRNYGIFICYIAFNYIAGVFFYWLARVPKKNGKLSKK
Description: (§1) Saccharomyces cerevisiae cells expressing Pdr5 WT or the E1036Q (EQ) mutant were cultured to an OD600 of 1.5 in YPD-media at 25°C. The nitrogen source was replenished by addition of a 10th volume of 5x YP (50 g/l yeast extract, 100 g/l peptone). The cells were grown to an OD of 3.5 and harvested (5000 ×g at 4°C for 15 min). The isolation of Pdr5 containing PMs was performed as described ([Kolaczkowski et al., 1996]; [Ernst et al., 2008]).
Active transport of R6G was measured according to the protocol developed by [Kolaczkowski et al. (1996)], using a Tecan Infinite 200 pro reader (Tecan Group AG, Männedorf, Switzerland). 6 μg of the isolated PM containing Pdr5 were resuspended in 200 μl of the transport buffer (50 mM HEPES, pH 7.0, 5 mM MgCl2, 10 mM NaN3, and 150 nM R6G) and incubated in a black 96-well plate at 30°C. 5 μl of the test compound were added at the indicated concentrations. Active transport was initiated by the addition of 10 μl 200 mM ATP and fluorescence intensity was recorded in 15 s-intervals for 20 min (excitation wavelength at 524 nm, emission wavelength at 558 nm, number of flashes 30, integration time 2000 μs). IC50 determination was performed with a serial dilution of the test compounds.

[2] = system: BCRP-expressing MCF-7/MX cells; assay: Sensitization of MCF-7/MX cells to mitoxantrone (co-treatment, cell viability); assay type: cell-based, human; details: for Fold change of mitoxantrone IC50: IC50 (drug alone)/IC50 (drug with modulator)
Description: (§2) Cytotoxic activity of test compounds was analyzed after 48 h using the CellTiter-Glo Luminescent Cell Viability Assay published previously ([Weber et al., 2017]) in 384-well plates with the following cell densities: A549, MCF-7/MX: 2 × 10^3 cells/well; HCT-15: 3 × 10^3 cells/well; H69AR: 5 × 10^3 cells/well. Pipetting was conducted with the CyBi-Well 96-channel simultaneous pipettor (Analytik Jena AG, Jena, Germany). For generation of dose-response curves and calculation of IC50 values, the four-parameter logistic model was applied.
(§3) The ability of identified inhibitors of P-gp and BCRP to sensitize HCT-15 or MCF-7/MX cells to chemotherapy was analyzed by co-treatment with test compounds and doxorubicin or mitoxantrone, respectively. Cells were incubated with a serial dilution of the chemotherapeutic drug alone or in combination with fixed concentrations of the test compounds or positive controls (2.5 μM PSC833 and 1 μM Ko143, respectively). Fold change of drug IC50 was calculated with the formula IC50 (drug alone)/IC50 (drug with modulator).

[3] = molecular target: T1, Pdr5; assay: Pdr5 ATPase assay (oligomycin-sensitive) in plasma membrane preparations; assay type: biochemical; details: highest concentrations (10 mM), in comparison to Pdr5 WT in the absence of any compound
Description: as §1
Oligomycin (OM)-sensitive ATPase activity was measured from 0.8 μg PM containing Pdr5 incubated with 2 mM ATP, 5 mM MgCl2 in 270 mM TRIS-glycine buffer (pH 9.5) and 2.5 μl of the test compounds or DMSO as a control in a total volume of 100 μl. To reduce the background activities, 0.2 mM ammonium molybdate, 10 mM NaN3 and 50 mM KNO3, respectively, were added ([Dufour et al., 1988]; [Goffeau and Dufour, 1988]). In a second assay, OM (20 μg/ml) was added to an otherwise identical setup. After incubation at 30°C for 20 min, the reaction was stopped by adding 25 μl of the reaction to 175 μl 40 mM H2SO4. The amount of released inorganic phosphate was determined by a colometric assay in 96-well plates ([Goffeau and Dufour, 1988]; [Decottignies et al., 1994]; [Wada et al., 2002]). The difference of both assays ( ± OM) corresponds to the specific ATPase activity of Pdr5 ([Ernst et al., 2008]).

[4] = system: P-gp expressing HCT-15 cells; assay: Sensitization of HCT-15 cells to doxorubicin (co-treatment, cell viability); assay type: cell-based, human; details: for Fold change of doxorubicin IC50: IC50 (drug alone)/IC50 (drug with modulator)
Description: as §2, §3

[5] = system: S. cerevisiae strain expressing Pdr5 EQ; assay: Liquid drug assay, yeast strain expressing Pdr5 EQ mutant; assay type: cell-based, Saccharomyces cerevisiae; details: serial dilutions, 48 h, 30°C, OD600
Description: (§4) The following S. cerevisiae yeast strain was used: YRE1001 (MATa ura3-52 trp1-1 leu2-3,112 his3-11,15 ade2-1 pdr1-3 pdr5pdr5promΔ::TRP1). S. cerevisiae was cultured in YPD medium (10 g/L yeast extract, 20 g/L peptone, 2% glucose) at 30°C and 200 rpm. The yeast strain has been described previously ([Ernst et al., 2008]; [Gupta et al., 2014]). Based on these studies it is evident that Pdr5 localizes to the PM and is present in approximately 10% of the overall membrane protein content of the PM.
(§5) The liquid drug assay was carried out in sterile 96-well plates. 50 μl of yeast cell culture at an OD600 of 0.15 were mixed with 193.75 μl YPD and 6.25 μl of the test compound or DMSO as a negative control. To distinguish between cytotoxic compounds and those which inhibit Pdr5 WT specifically, the Pdr5 substrate ketoconazole was added only to cultures expressing wild-type Pdr5 in a final concentration of 1 μg/ml. At this concentration, inhibition of Pdr5 would result in ketoconazole-mediated cell death. After 48 h at 30°C the growth was measured with an ELISA plate reader (BioRad, Hercules, CA, United States) at 595 nm.

[6] = system: S. cerevisiae strain expressing Pdr5 WT; assay: Liquid drug assay, yeast strain expressing Pdr5 WT; assay type: cell-based, Saccharomyces cerevisiae; details: serial dilutions, 48 h, 30°C, OD600
Description: as §4, §5

Row | Compound | R6G transport activity of Pdr5 WT inhibited to (initial screen) [1] | Sensitization of MCF-7/MX cells to mitoxantrone (in words) [2] | Fold change of mitoxantrone IC50 ([2]; +10 μM of the modulator) | Fold change of mitoxantrone IC50 ([2]; +20 μM of the modulator) | Fold change of mitoxantrone IC50 ([2]; +50 μM of the modulator) | ATPase activity of Pdr5 WT inhibited to (initial screen) [3] | Sensitization of HCT-15 cells to doxorubicin (in words) [4] | Fold change of doxorubicin IC50 ([4]; +20 μM of the modulator) | Fold change of doxorubicin IC50 ([4]; +50 μM of the modulator) | IC50 [1] | Effect on growth of yeast strain expressing Pdr5 EQ mutant [5] | Effect on growth of yeast strain expressing Pdr5 WT [6] | R6G transport activity of Pdr5 WT inhibited to (initial screen) ([1]; listed as 4) | R6G transport activity of Pdr5 WT inhibited to (initial screen) ([1]; listed as angelicoin B (4)) | ATPase activity of Pdr5 WT inhibited to (initial screen) ([3]; listed as 4) | ATPase activity of Pdr5 WT inhibited to (initial screen) ([3]; listed as angelicoin (4)) | ATPase activity of Pdr5 WT inhibited to (initial screen) ([3]; listed as angelicoin B (4))
1 | COc1cc(O)c2c(c1)CCOC2=O [Compound 14] | did not interfere with Pdr5-mediated R6G transport; also recorded: no effect | did not have a significant influence | 1.01 | 0.77 | 0.78 | nearly no effect; also recorded: no inhibitory effect | did not sensitize the cells to doxorubicin | 0.89 | 0.80 | – | – | – | – | – | – | – | –
2 | CCCCCC1Cc2cc(OC)cc(O)c2C(=O)O1 (stereo not shown) [Compound 16] | inhibit the transport of R6G completely; also recorded: inhibit the transport activity of Pdr5 WT completely | – | 0.93 | 3.70 | 5.6 | – | – | 0.98 | 3.7 | 15.1 ± 2.1 µM | – | – | – | – | – | – | –
3 | CCCCCC1Cc2cc(OC)cc(OC)c2C(=O)O1 (stereo not shown) [Compound 16a] | inhibit the transport of R6G completely; also recorded: inhibit the transport activity of Pdr5 WT completely | – | – | – | – | – | – | – | – | 14.6 ± 3.9 µM | inhibited the growth of the mutant strain slightly at the highest tested concentration | no effect on the wild-type strain | – | – | – | – | –
4 | COc1cc(O)c2c(c1)C[C@H](C)OC2=O [Angelicoin B (4), angelicoin B] | – | – | – | – | – | – | – | – | – | – | – | – | no effect | did not interfere with Pdr5-mediated R6G transport | nearly no effect | no effect | no inhibitory effect
